Assay results as given in ChEMBL document CHEMBL4145688, “Potent and Orally Bioavailable Inverse Agonists of RORγt Resulting from Structure-Based Design” (J Med Chem, 2018).
In brackets after ≈: the same amount, converted by molar mass.

What was measured:
[1] = biological target: T1, Nuclear receptor ROR-gamma (Homo sapiens, UniProt P51449); experiment: Inverse agonist activity at RORgammat in human TH17 cells assessed as inhibition of IL17 release incubated for 4 days by HTRF assay; format: cell-based
T1 sequence (P51449 whole entry): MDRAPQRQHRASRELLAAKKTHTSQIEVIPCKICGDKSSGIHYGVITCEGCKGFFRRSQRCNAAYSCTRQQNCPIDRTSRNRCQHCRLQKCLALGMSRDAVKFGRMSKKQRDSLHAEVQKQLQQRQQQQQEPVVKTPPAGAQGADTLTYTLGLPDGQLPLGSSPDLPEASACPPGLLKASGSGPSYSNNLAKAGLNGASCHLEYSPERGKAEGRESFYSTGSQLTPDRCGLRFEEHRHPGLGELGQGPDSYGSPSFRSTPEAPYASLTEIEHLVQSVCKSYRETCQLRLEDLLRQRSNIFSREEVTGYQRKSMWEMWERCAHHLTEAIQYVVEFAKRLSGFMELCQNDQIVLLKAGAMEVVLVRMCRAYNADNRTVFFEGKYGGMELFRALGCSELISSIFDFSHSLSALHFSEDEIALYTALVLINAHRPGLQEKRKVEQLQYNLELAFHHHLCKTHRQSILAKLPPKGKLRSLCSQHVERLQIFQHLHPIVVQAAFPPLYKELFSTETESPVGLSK

[2] = Distribution coefficient between 1-octanol and aqueous phosphate buffer, logD of the compound in pH 7.4 buffer; format: physicochemical; conditions: 1-octanol/aqueous phosphate buffer
[3] = biological target: T1, Nuclear receptor ROR-gamma
Description: Displacement of [3H]-2-(4-(ethylsulfonyl)phenyl)-N-(4-(2-(methoxymethyl)phenyl)thiophen-2-yl)acetamide from purified N-(HN)6-GST-TCS-human RORgammat (258 to 518 residues) incubated for 16 hrs by scintillation proximity assay

[4] = biological target: T1, Nuclear receptor ROR-gamma; remark: listed apart in the source
[5] = Cytotoxicity in human Th17 cells assessed as effect on cell viability by cell-titer-Glo luminescent cell viability assay relative to control; format: cell-based; conditions: read-out: Efficacy
[6] = Intrinsic clearance in rat hepatocytes assessed per million cells; format: ADME, cell-based, Hepatocyte; conditions: read-out: CLH
[7] = Selectivity index, ratio of cytotoxicity in human Th17 cells to IC50 for inverse agonist activity at RORgammat in human TH17 cells assessed as inhibition of IL17 release; format: toxicity, cell-based
[8] = Permeability from apical to basolateral side in human Caco2 cells; format: ADME, cell-based; conditions: for Papp A→B: Caco-2, read-out: permeability
[9] = Permeability from basolateral to apical side in human Caco2 cells; format: ADME, cell-based; conditions: for Papp B→A: Caco-2, read-out: permeability
[10] = Permeability in human Caco2 cells assessed as drug recovery; format: ADME, cell-based; conditions: Caco-2, read-out: Drug recovery
[11] = Unbound fraction in human plasma by equilibrium dialysis; format: ADME, cell-free
[12] = Volume of distribution at steady state in Han Wistar rat at 0.5 mg/kg, iv or 1 mg/kg, po; format: ADME, organism-based; conditions: in vivo, read-out: Vdss
[13] = Oral bioavailability in Han Wistar rat at 1 mg/kg; format: ADME, organism-based; conditions: in vivo
[14] = Oral absorption in Han Wistar rat at 1 mg/kg; format: ADME, organism-based; conditions: in vivo, read-out: Fabs
physchem = conditions: aqueous buffer, pH 7.4
Description: Solubility in aqueous buffer at pH 7.4

[15] = Efflux ratio of permeability in human Caco2 cells; format: ADME, cell-based; conditions: Caco-2

Structure (SMILES)	IC50 [1] [nM]	logD [2]	IC50 [3] [nM]	IC50 [4] [nM]	hepatocyte CLint [6] [µL/min/1e6 cells]	further results
CCS(=O)(=O)c1ccc(CC(=O)Nc2nc(-c3cccc(Cl)c3)c(C(=O)c3ccccc3Cl)s2)cc1	180	> 4.2	9	22	–	–
CCS(=O)(=O)c1ccc(CC(=O)Nc2cc(-c3cccnc3OCc3cccc(C#N)c3)cs2)cc1	–	≥ 4	19	–	281	Emax [5]: 50%
CCS(=O)(=O)c1ccc(CC(=O)Nc2cc(-c3cccnc3OC/C=C/c3ccccc3)cs2)cc1	25	≥ 4	11	29	45	Emax [5]: 40%; selectivity ratio [7]: 100
CCS(=O)(=O)c1ccc(CC(=O)Nc2cc(-c3cccc(Cl)c3)cs2)cc1	–	> 4.1	–	–	–	–
CCS(=O)(=O)c1ccc(CC(=O)Nc2cc(-c3cc(C#N)cnc3OC)cs2)cc1	> 3300	3.5	30	40	–	permeability ([8]; Caco-2): 2.6 ×10⁻⁶ cm/s; permeability ([9]; Caco-2): 17.1 ×10⁻⁶ cm/s; recovery [10]: 44%; fraction unbound [11]: 0.0009
CCS(=O)(=O)c1ccc(CC(=O)Nc2cc(-c3cccnc3OC)cs2)cc1	–	3.6	410	110	13	–
CCS(=O)(=O)c1ccc(CC(=O)Nc2cc(-c3cccnc3OCCc3ccccc3)cs2)cc1	–	≥ 4	29	–	125	Emax [5]: 70%
CCS(=N)(=O)c1ccc(CC(=O)Nc2cc(-c3cc(C#N)ccc3OC)cs2)cc1 (configuration not stated)	–	2.8	340	120	–	–
CCS(=O)(=O)c1ccc(CC(=O)Nc2cc(-c3cc(Cl)cc(C#N)c3)cs2)cc1	–	> 4	50	90	–	–
CCS(=O)(=O)c1ccc(CC(=O)Nc2cc(-c3cncnc3OC)cs2)cc1	–	2.8	1850	700	–	–
CCS(=O)(=O)c1ccc(CC(=O)Nc2cc(-c3cccnc3OCc3ccc(C#N)cc3)cs2)cc1	100	≥ 4	10	30	286	Emax [5]: 50%
CCS(=O)(=O)c1ccc(CC(=O)Nc2cc(-c3cccnc3Oc3ccccc3)cs2)cc1	–	≥ 4	46	–	196	Emax [5]: 50%
CCS(=O)(=O)c1ccc(CC(=O)Nc2cc(-c3cccnc3OCC(F)(F)F)cs2)cc1	100	–	18	50	17	–
CCS(=O)(=O)c1ccc(CC(=O)Nc2cc(-c3cccnc3OCc3ccc(C(=O)OC)cc3)cs2)cc1	35	≥ 4	14	21	> 300	selectivity ratio [7]: 100
CCS(=O)(=O)c1ccc(C(NC(C)=O)C(=O)Nc2cc(-c3cc(C#N)cc(F)c3OC)cs2)cc1 (configuration not stated)	–	3.3	–	–	–	Papp A→B [8]: 0.3 ×10⁻⁶ cm/s; Papp B→A [9]: 18 ×10⁻⁶ cm/s; Vd [12]: 0.34 L/kg; bioavailability [13]: 18%; Fa [14]: 19%; solubility (physchem): 200 µM (≈ 103 µg/mL)
CCS(=O)(=O)c1ccc(C(NC(C)=O)C(=O)Nc2cc(-c3cccnc3Oc3ccc(C#N)cc3)cs2)cc1 (configuration not stated)	640	3.4	66	55	10.4	–

Structure (SMILES)	IC50 [1] [nM]	logD [2]	IC50 [3] [nM]	IC50 [4] [nM]	hepatocyte CLint [6] [µL/min/1e6 cells]	further results
CC[S+]([O-])c1ccc(CC(=O)Nc2cc(-c3cc(C#N)cnc3OC)cs2)cc1 (configuration not stated)	–	3.4	1290	440	–	–
CCS(=O)(=O)c1ccc(CC(=O)Nc2cc(-c3ccc(C#N)cc3Cl)cs2)cc1	–	3.7	1160	780	–	–
CCOc1ncccc1-c1csc(NC(=O)Cc2ccc(S(=O)(=O)CC)cc2)c1	–	≥ 4	150	80	28	–
CCS(=O)(=O)c1ccc(C(N)C(=O)Nc2cc(-c3cc(C#N)cc(F)c3OC)cs2)cc1 (configuration not stated)	1690	3.2	75	452	11	–
CCS(=O)(=O)N1CCC(CC(=O)Nc2cc(-c3cc(C#N)cnc3OC)cs2)CC1	–	3.2	3250	3250	–	–
CNS(=O)(=O)c1ccc(CC(=O)Nc2cc(-c3cc(C#N)cnc3OC)cs2)cc1	> 3300	3.5	70	40	–	Papp A→B [8]: 0.65 ×10⁻⁶ cm/s; Papp B→A [9]: 26 ×10⁻⁶ cm/s; efflux ratio [15]: 40; recovery [10]: 55%; fraction unbound [11]: < 0.001; solubility (physchem): 0.34 µM (≈ 0.15 µg/mL)
CCS(=O)(=O)c1ccc(CC(=O)Nc2cc(-c3cc(C#N)ccc3OC)cs2)cc1	> 3300	3.6	20	30	–	Papp A→B [8]: 1.6 ×10⁻⁶ cm/s; Papp B→A [9]: 12 ×10⁻⁶ cm/s; efflux ratio [15]: 7.6; recovery [10]: 41%; fraction unbound [11]: 0.001; solubility (physchem): 0.43 µM (≈ 0.189 µg/mL)
CCS(=O)(=O)c1ccc(C(NC(C)=O)C(=O)Nc2cc(-c3cccnc3OCc3ccccc3)cs2)cc1 (configuration not stated)	–	> 4	7	–	24	–
CCS(=O)(=O)c1ccc(CC(=O)Nc2cc(-c3cccnc3Oc3ccc(C#N)cc3)cs2)cc1	190	3.6	88	–	28	–
CCS(=O)(=O)c1ccc(C(NC(C)=O)C(=O)Nc2cc(-c3cc(C#N)cnc3OC)cs2)cc1 (configuration not stated)	990	3.3	14	67	4	–
CCCOc1ncccc1-c1csc(NC(=O)Cc2ccc(S(=O)(=O)CC)cc2)c1	–	≥ 4	59	–	80	Emax [5]: 40%
CCS(=O)(=O)c1ccc(CC(=O)Nc2cc(-c3cccnc3OCCCc3ccccc3)cs2)cc1	> 3300	≥ 4	17	–	104	Emax [5]: 30%
CCS(=O)(=O)c1ccc(CC(=O)Nc2cc(-c3cc(C#N)ccc3Cl)cs2)cc1	–	3.8	50	60	–	–
CCS(=O)(=O)c1ccc(CC(=O)Nc2cc(-c3cccnc3OCc3ccccc3)cs2)cc1	–	> 4	20	–	128	Emax [5]: 30%; selectivity ratio [7]: < 10; fraction unbound [11]: 0.0003; solubility (physchem): 0.42 µM (≈ 0.207 µg/mL)
CCS(=O)(=O)c1ccc(C(NC(C)=O)C(=O)Nc2cc(-c3cccnc3OCc3ccc(OC(F)(F)F)cc3)cs2)cc1 (configuration not stated)	32	4.6	6	75	9.1	–
